19 compounds from patent publication US10633394B2, “Heterocyclic derivatives and use thereof” (C & C RESEARCH LABORATORIES, priority 2014, dated 2020) can be followed below.

Some results are limits rather than exact numbers.

Holding throughout (format): cell-based
One assay concerns the target T1, STAT3 (Homo sapiens, UniProt P40763).
T1 construct: plasmid pSTAT3-TA-luc), which contains a stably operating STAT3 promoter; endogenous in cells
The experiment in a line: STAT3 reporter gene (luciferase) assay in LNCaP stable cell line stimulated with IL-6. Particulars: LNCaP stable cell line (pSTAT3-TA-luc), IL-6 10 ng/mL, 24 hours. The method, then: 1-1) Experiment on the Inhibition of STAT3 Activity
A human prostate cancer cell line (LNCaP stable cell line; plasmid pSTAT3-TA-luc), which contains a stably operating STAT3 promoter, was cultured in RPMI1640 medium (Cat No. 11875, Life Technologies) containing 10% fetal bovine serum (FBS) (Cat No. SH30396, Thermo Scientific) and 150 μg/mL G-418 solution (Cat No. 04 727 894 001, Roche). The reporter gene assay using LNCaP stable cell line was performed in RPMI1640 medium containing 3% DCC-FBS without G-418 solution. LNCaP stable cells were plated in two (2) white 96-well plates with 30,000 cells/50 μL in each well. The cells were cultured at 37° C., under 5% CO2 for 24 hours, and then treated with the compounds listed in Examples which were diluted in various concentrations. Subsequently, IL-6 was added to each well with a final concentration of 10 ng/mL. Upon completion of the treatment with the compounds and IL-6, the cells were cultured at 37° C., under 5% CO2 for 24 hours. The plates were observed under microscope and drug precipitation and particular findings were investigated and recorded.
The luciferase assay and the cell viability assay were performed respectively with one of the two plates. For the luciferase assay, the liquid media in the 96-well plate was removed, and then, 20 μL of passive cell lysis buffer was added to each well. After shaking the plate for 30 minutes, luciferase activities of each well were measured in a PHERAstar™ microplate reader (BMG LABTECH) using a luciferase assay system (Cat No. E1501, Promega). For the cell viability assay, the 96-well plate was placed at room temperature for 30 minutes, added with 20 μL/well of CellTiter-Glo solution (Cat No. G7573, Promega), and shaken for 10 minutes in order to measure cytotoxicity caused by the compounds listed in Examples with a PHERAstar™ microplate reader (BMG LABTECH). Wells without 0.1% DMSO and stimulation were used as a negative control and wells with 0.1% DMSO and stimulation were used as a positive control.
The results of evaluation on the inhibitory effect of the compounds listed in the Examples on the dimerization of STAT3 and STAT1 obtained via the STAT3 and STAT1 reporter gene assays are shown in Table 6 below.

The subject of the next assay is NCI-N87. As to the kind of experiment: Cell growth inhibition assay (CellTiter-Glo), stomach cancer cell line NCI-N87. The conditions noted are these: Homo sapiens; NCI-N87 cells, 96 hours. The method, then:
(§1) The inhibitory effects of the compounds of the present invention against the growth of cancer cells were evaluated as shown below. The cancer cell lines including stomach cancer cell line (NCI-N87) and breast cancer cell line (MDA-MB-468) were cultured under the protocol provided by each supplier. Each type of cells to be used in experiments was sub-cultured in a 96-well plate by counting the exact number of cells using Tali™ Image-based Cytometer (Life Technologies). In a 96-well plate, NCI-N87 was employed with 5,000 cells/well; and MDA-MB-468 was employed with 10,000 cells/well. The cells were treated with the compounds listed in Examples which were diluted in various concentrations. Upon completion of the compounds treatment, NCI-N87 cells were cultured at 37° C. under 5% CO2 for 96 hours, and MDA-MB-468 cells were cultured at 37° C. in air for 96 hours. Subsequently, the cells were observed under microscope and drug precipitation and particular findings were investigated and recorded. And then, the 96-well plate was placed at room temperature for 30 minutes, added with 20 μL/well of CellTiter-Glo solution (Cat No. G7573, Promega) and shaken for 10 minutes, followed by being subjected to the measurement using PHERAstar™ microplate reader (BMG LABTECH) according to the supplier's general luminometer protocol. Wells where only culture liquid added without cell plating were used as a negative control, whereas wells where culture liquid containing 0.1% DMSO instead of the compounds listed in Examples were used as a positive control.

In another assay the test system is MDA-MB-468. As to the kind of experiment: Cell growth inhibition assay (CellTiter-Glo), breast cancer cell line MDA-MB-468. The conditions noted are these: Homo sapiens; MDA-MB-468 cells, 96 hours. The method, then: as §1

T1 sequence (P40763 whole entry): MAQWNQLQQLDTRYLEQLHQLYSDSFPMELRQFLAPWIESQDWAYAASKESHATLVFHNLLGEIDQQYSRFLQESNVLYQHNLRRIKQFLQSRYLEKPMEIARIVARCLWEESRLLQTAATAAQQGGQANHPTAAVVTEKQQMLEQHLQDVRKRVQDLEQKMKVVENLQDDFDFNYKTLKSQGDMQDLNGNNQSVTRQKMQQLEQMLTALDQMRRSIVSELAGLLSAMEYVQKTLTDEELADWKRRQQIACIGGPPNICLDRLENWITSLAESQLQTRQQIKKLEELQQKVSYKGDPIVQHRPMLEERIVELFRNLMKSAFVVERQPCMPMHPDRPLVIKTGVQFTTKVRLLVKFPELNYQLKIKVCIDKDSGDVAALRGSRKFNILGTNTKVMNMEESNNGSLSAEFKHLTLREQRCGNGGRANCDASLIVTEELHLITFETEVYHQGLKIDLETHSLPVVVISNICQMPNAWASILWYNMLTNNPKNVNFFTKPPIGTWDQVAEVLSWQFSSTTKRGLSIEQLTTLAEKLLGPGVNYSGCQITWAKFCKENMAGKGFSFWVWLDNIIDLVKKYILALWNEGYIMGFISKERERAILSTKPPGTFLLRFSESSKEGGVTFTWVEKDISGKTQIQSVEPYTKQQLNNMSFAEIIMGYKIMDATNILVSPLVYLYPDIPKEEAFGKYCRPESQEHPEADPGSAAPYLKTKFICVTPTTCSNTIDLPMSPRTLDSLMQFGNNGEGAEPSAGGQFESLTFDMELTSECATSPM

Consider `CS(=O)(=O)C1CCOc2cc3sc(C(=O)Nc4cc(Cl)nc(Oc5ccc(F)c(F)c5)c4)cc3cc21` (stereo not drawn) [Example 34, N-(2-chloro-6-(3,4-difluorophenoxy)pyridin-4-yl)-4-(methylsulfonyl)-3,4-dihydro-2H-thieno[3,2-g]chromene-7-carboxamide], for which the half-inhibitory concentration (IC50) at STAT3 worked out at 0.0064 µM; in the assay with NCI-N87, 0.0092 µM; in the assay with MDA-MB-468, 0.0023 µM.

Turning to `CS(=O)(=O)[C@]1(F)CCOc2cc3sc(C(=O)Nc4cc(Cl)nc(Oc5ccc(Cl)cc5)c4)cc3cc21` [Example 46, (R)—N-(2-chloro-6-(4-chlorophenoxy)pyridin-4-yl)-4-fluoro-4-(methylsulfonyl)-3,4-dihydro-2H-thieno[3,2-g]chromene-7-carboxamide], the IC50 against STAT3 was 0.14 µM; in the assay with NCI-N87, 0.56 µM; with MDA-MB-468 it was > 0.1 µM.

Take `COc1cc(Cl)cc(Oc2cc(NC(=O)c3cc4cc5c(cc4s3)OCCC5S(C)(=O)=O)cc(Cl)n2)c1` (stereo not drawn) [Example 30, N-(2-chloro-6-(3-chloro-5-methoxyphenoxy)pyridin-4-yl)-4-(methylsulfonyl)-3,4-dihydro-2H-thieno[3,2-g]chromene-7-carboxamide]: the IC50 against STAT3 was found to be 0.02 µM; in the assay on NCI-N87, 0.025 µM; with MDA-MB-468, 0.0085 µM.

Turning to `CS(=O)(=O)C1CCOc2cc3sc(C(=O)Nc4cc(Cl)nc(Oc5ccc(F)cc5)c4)cc3cc21` (stereo not drawn) [Example 26, N-(2-chloro-6-(4-fluorophenoxy)pyridin-4-yl)-4-(methylsulfonyl)-3,4-dihydro-2H-thieno[3,2-g]chromene-7-carboxamide], the results for the IC50 against STAT3, in the assay on NCI-N87 and in the assay on MDA-MB-468 were 0.0073 µM, 0.0072 µM and 0.0046 µM, respectively.

For the compound `CS(=O)(=O)C1CCOc2cc3sc(C(=O)Nc4cc(Cl)nc(Oc5ccc(F)c(Cl)c5)c4)cc3cc21` (stereo not drawn) [Example 27, N-(2-chloro-6-(3-chloro-4-fluorophenoxy)pyridin-4-yl)-4-(methylsulfonyl)-3,4-dihydro-2H-thieno[3,2-g]chromene-7-carboxamide], the half-maximal inhibitory concentration (IC50) turned out to be 0.0078 µM at STAT3, 0.0049 µM in the assay on NCI-N87 and 0.0029 µM in the assay with MDA-MB-468.

As to `COc1cc(Cl)cc(Oc2cc(NC(=O)c3cc4cc5c(cc4s3)OCC[C@@H]5S(C)(=O)=O)cc(Cl)n2)c1` [Example 49, (S)—N-(2-chloro-6-(3-chloro-5-methoxyphenoxy)pyridin-4-yl)-4-(methylsulfonyl)-3,4-dihydro-2H-thieno[3,2-g]chromene-7-carboxamide], the half-inhibitory concentration (IC50) came to 0.0066 µM at STAT3, 0.018 µM in the assay with NCI-N87 and 0.0059 µM with MDA-MB-468.

As for `N#CC1CCOc2cc3sc(C(=O)Nc4cc(Cl)nc(Oc5ccc(Cl)cc5)c4)cc3cc21` (stereo not drawn) [Example 54, N-(2-chloro-6-(4-chlorophenoxy)pyridin-4-yl)-4-cyano-3,4-dihydro-2H-thieno[3,2-g]chromene-7-carboxamide], the IC50 came to 0.18 µM at STAT3, 0.32 µM in the assay with NCI-N87 and 0.075 µM in the assay with MDA-MB-468.

`CS(=O)(=O)C1CCOc2cc3sc(C(=O)Nc4cc(Cl)nc(Oc5cccc(Cl)c5)c4)cc3cc21` (stereo not drawn) [Example 25, N-(2-chloro-6-(3-chlorophenoxy)pyridin-4-yl)-4-(methylsulfonyl)-3,4-dihydro-2H-thieno[3,2-g]chromene-7-carboxamide]: the IC50 against STAT3 was determined as 0.011 µM; with NCI-N87, 0.01 µM; in the assay with MDA-MB-468, 0.0049 µM.

At STAT3, `CS(=O)(=O)C1CCOc2cc3sc(C(=O)Nc4cc(Cl)nc(Oc5ccccc5C(F)(F)F)c4)cc3cc21` (stereo not drawn) [Example 39, N-(2-chloro-6-(2-(trifluoromethyl)phenoxy)pyridin-4-yl)-4-(methylsulfonyl)-3,4-dihydro-2H-thieno[3,2-g]chromene-7-carboxamide] had an IC50 of 0.014 µM.

Turning to `CC1(C)CN(S(C)(=O)=O)c2cc3cc(C(=O)Nc4cc(Cl)nc(Oc5ccc(Cl)cc5)c4)sc3cc2O1` [Example 2, N-(2-chloro-6-(4-chlorophenoxy)pyridin-4-yl)-3,3-dimethyl-1-(methylsulfonyl)-2,3-dihydro-1H-thieno[3′,2′:4,5]benzo[1,2-b][1,4]oxazine-7-carboxamide], the 50% inhibitory concentration (IC50) on STAT3 came out at 0.17 µM; in the assay on NCI-N87, 1.2 µM.

On to `CS(=O)(=O)N1CCOc2cc3sc(C(=O)Nc4cc(Cl)nc(Oc5ccc(Cl)cc5)c4)cc3cc21` [Example 1, N-(2-chloro-6-(4-chlorophenoxy)pyridin-4-yl)-1-(methylsulfonyl)-2,3-dihydro-1H-thieno[3′,2′:4,5]benzo[1,2-b][1,4]oxazine-7-carboxamide], for which the figures for the half-inhibitory concentration (IC50) against STAT3 and in the assay with NCI-N87 were 0.0026 µM and 0.0083 µM, respectively.

As for `CS(=O)(=O)C1CCOc2cc3sc(C(=O)Nc4cc(Cl)nc(Oc5cc(Cl)ccc5F)c4)cc3cc21` (stereo not drawn) [Example 35, N-(2-chloro-6-(5-chloro-2-fluorophenoxy)pyridin-4-yl)-4-(methylsulfonyl)-3,4-dihydro-2H-thieno[3,2-g]chromene-7-carboxamide], at STAT3, the half-inhibitory concentration (IC50) is 0.01 µM.

On to `CC(C)(c1ccc(Cl)cc1)c1cc(Cl)cc(NC(=O)c2cc3cc4c(cc3s2)OCCN4S(C)(=O)=O)c1` [Example 56, N-(3-chloro-5-(2-(4-chlorophenyl)propan-2-yl)phenyl)-1-(methylsulfonyl)-2,3-dihydro-1H-thieno[3′,2′:4,5]benzo[1,2-b][1,4]oxazine-7-carboxamide], for which the IC50 at STAT3 was 0.0028 µM; with NCI-N87, 0.019 µM.

On STAT3, `Cc1ccc(Oc2cc(NC(=O)c3cc4cc5c(cc4s3)OCCC5S(C)(=O)=O)cc(Cl)n2)cc1Cl` (stereo not drawn) [Example 38, N-(2-chloro-6-(3-chloro-4-methylphenoxy)pyridin-4-yl)-4-(methylsulfonyl)-3,4-dihydro-2H-thieno[3,2-g]chromene-7-carboxamide] returned an IC50 of 0.0088 µM.

Turning to `CC1(C)CCN(S(C)(=O)=O)c2cc3cc(C(=O)Nc4cc(Cl)nc(Oc5ccc(Cl)cc5)c4)sc3cc21` [Example 4, N-(2-chloro-6-(4-chlorophenoxy)pyridin-4-yl)-8,8-dimethyl-5-(methylsulfonyl)-5,6,7,8-tetrahydrothieno[2,3-g]quinoline-2-carboxamide], the IC50 against STAT3 is 0.93 µM; in the assay on NCI-N87, 4.1 µM.

For the compound `CS(=O)(=O)C1CCOc2cc3sc(C(=O)Nc4cc(Cl)nc(Oc5cccc(Cl)c5F)c4)cc3cc21` (stereo not drawn) [Example 36, N-(2-chloro-6-(3-chloro-2-fluorophenoxy)pyridin-4-yl)-4-(methylsulfonyl)-3,4-dihydro-2H-thieno[3,2-g]chromene-7-carboxamide], the IC50 against STAT3 was 0.014 µM.

With `CS(=O)(=O)N1CCCOc2cc3sc(C(=O)Nc4cc(Cl)nc(Oc5ccc(Cl)cc5)c4)cc3cc21` [Example 3, N-(2-chloro-6-(4-chlorophenoxy)pyridin-4-yl)-1-(methylsulfonyl)-1,2,3,4-tetrahydrothieno[3′,2′:4,5]benzo[1,2-b][1,4]oxazepine-8-carboxamide], the results for the half-inhibitory concentration (IC50) on STAT3 and with NCI-N87 were 0.01 µM and 0.045 µM, respectively.

For the compound `CS(=O)(=O)N1CCCc2cc3sc(C(=O)Nc4cc(Cl)nc(Oc5ccc(Cl)cc5)c4)cc3cc21` [Example 6, N-(2-chloro-6-(4-chlorophenoxy)pyridin-4-yl)-5-(methylsulfonyl)-5,6,7,8-tetrahydrothieno[2,3-g]quinoline-2-carboxamide], the 50% inhibitory concentration (IC50) on STAT3 turned out to be 0.003 µM; in the assay with NCI-N87, 0.0055 µM.

As for `CS(=O)(=O)N1CCNc2cc3sc(C(=O)Nc4cc(Cl)nc(Oc5ccc(Cl)cc5)c4)cc3cc21` [Example 50, N-(2-chloro-6-(4-chlorophenoxy)pyridin-4-yl)-1-(methylsulfonyl)-1,2,3,4-tetrahydrothieno[2,3-g]quinoxaline-7-carboxamide], the 50% inhibitory concentration (IC50) at STAT3 amounted to 0.0082 µM; in the assay with NCI-N87, 0.0091 µM.
